Experimental findings from US20230203485A1, “METHODS FOR MODULATING MHC-I EXPRESSION AND IMMUNOTHERAPY USES THEREOF” (Dana-Farber Cancer Institute, Inc., priority 2020, published 2023) are described below.

This assay has as its system HLA class I bound peptides of MCC cell lines. Kind of assay: HLA class I immunoprecipitation and LC-MS/MS immunopeptidome of MCC tumors and cell lines +/- IFNγ. In kind it is cell-based, human. The source says:
CL=cell line (left). Correlation heatmap of peptide sequences between MCC lines at baseline and after IFN-γ treatment in motif space (right).
HLA molecules are immunoprecipitated from tumor and cell line material, peptides are eluted from HLA complex and analyzed by LC-MS/MS. After database searching, peptides are assigned to their most likely allele by prediction in HLAthena.
Up to 40 million MCC cells were immunoprecipitated. Briefly, MCC cells were harvested and lysed in ice-cold lysis buffer containing […] (pH 8.0), 1 mM EDTA (pH 8.0), 0.1M sodium chloride, Triton X-100, 0.06M octyl 3-d-glucopyranoside, 100 U/mL DNAse I, 1 mM phenylmethanesulfonyl fluoride (all from Sigma Aldrich), protease inhibitor cocktail (Roche Diagnostics, Indianapolis, Ind.). Cell lysates were centrifuged at 12,700 rpm at 4° C. for 22 min. […] Peptides of up to three IPs were combined, acid eluted, and analyzed using LC/MS/MS as described previously (Abelin, Keskin Immunity). […] Peptides were eluted in a 6-30% gradient (EasyLC 1000 or 1200, ThermoFisher Scientific) and analyzed on a QExactive Plus or Fusion Lumos (ThermoFisher Scientific). […]
For detection of the large T antigen peptide, 3 Ips of a 367 Cell line treated with IFNγ were pooled, acid eluted, fractionated using stage tip basic reverse phase separation and fractions were analyzed on a Fusion Lumos equipped with a FAIMSpro interface (Klaeger et al., in preparation).
Mass spectra were interpreted using Spectrum Mill software package v7.1 pre-Release (Agilent Technologies, Santa Clara, Calif.). […] MS/MS spectra were searched against a protein sequence database that contained 98,298 entries, including all UCSC Genome Browser genes with hg19 annotation of the genome and its protein coding transcripts (63,691 entries), common human virus sequences (30,181 entries), recurrently mutated proteins observed in tumors from 26 tissues (4,167 entries), 264 common laboratory contaminants as well as protein sequences containing somatic mutations detected in MCC cell lines. […]

Regarding “IFN-γ: interferon gamma used to stimulate MCC cell lines”, the “abundance of class I bound peptides, median fold increase” value (across 4 cell lines, after IFN-γ stimulation vs baseline) worked out at 25 fold. Also, the “frequencies of peptides mapping to each HLA allele” value (cell lines exposed or not to IFN-γ) is “increase in HLA-B-presented peptides”.
“IFN-y: type II interferon, recombinant human, used to treat MCC cells”: the “number of detected peptides presented on HLA Class I” value (tumor derived cell lines, FIG. 3B) is recorded as “increased”.
